Measurements taken from PubChem BioAssay AID1963974 (Molecular Pharmacology Branch, DTP, NCI, 2024).

Tested on: 648629-189-R-J1-PDC spheroids with HUVEC/MSC, viability
Test: Anticancer human tumor 648629-189-R-J1-PDC patient-derived bladder carcinoma cell line growth inhibition [PI3K]
Details: for IC50: curve of first compound; for viability, T/C: stronger effect = lower value
Procedure, shortened: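 Spheroid viability read-out. Co-cultures contained the tumor line plus HUVEC and human MSCs. Each agent was paired with a PI3K inhibitor (inavolisib, alpelisib, duvelisib, copanlisib) across half-log dilutions starting at clinical Cmax, or at 10 microM when Cmax was unknown.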

[1] = second compound 0.00316 µM, first compound 0.0316 µM
[2] = second compound 0.00316 µM, first compound 0.1 µM
[3] = second compound 0.01 µM, first compound 0.0316 µM
[4] = second compound 0.01 µM, first compound 0.1 µM
[5] = second compound 0.0316 µM, first compound 0.0316 µM
[6] = second compound 0.0316 µM, first compound 0.1 µM
[7] = second compound 0.1 µM, first compound 0.0316 µM
[8] = second compound 0.1 µM, first compound 0.1 µM
[9] = second compound 0.316 µM, first compound 0.0316 µM
[10] = second compound 0.316 µM, first compound 0.1 µM
[11] = second compound 1 µM, first compound 0.0316 µM
[12] = second compound 1 µM, first compound 0.1 µM
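Further: spheroids exposed to agents for seven days before reading.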
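Wherever viability, T/C is given: percent of vehicle control luminescence where 100% = DMSO treated spheroids.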

Which IC50 (second compound 0.00316 µM) does the source give for CC(C)n1nc(-c2ccc3oc(N)nc3c2)c2c(N)ncnc21 + COc1c(OCCCN2CCOCC2)ccc2c3n(c(=NC(=O)c4cnc(N)nc4)nc12)CCN3 here?
The IC50 was 57.4 nM.

What about the IC50 (second compound 0.01 µM) of the same compound?
Its IC50 is 46.4 nM.

And the IC50 (second compound 0.0316 µM)?
Its IC50 is 35.4 nM.

What about the IC50 (second compound 0.1 µM) of the same compound?
Its IC50 is 14.6 nM.

What about the IC50 (second compound 0.316 µM) of the same compound?
Its IC50 is less than 0.316 nM.

And the IC50 (second compound 1 µM)?
The IC50 was less than 0.316 nM.

What about the viability, T/C (second compound 0.00316 µM, first compound 0.000316 µM) of the same compound?
Its viability, T/C is 90.5%.

What about the viability, T/C (second compound 0.00316 µM, first compound 0.001 µM) of the same compound?
Its viability, T/C is 79.5%.

What about the viability, T/C (second compound 0.00316 µM, first compound 0.00316 µM) of the same compound?
The viability, T/C was 95.2%.

What about the viability, T/C (second compound 0.00316 µM, first compound 0.01 µM) of the same compound?
The viability, T/C was 77.8%.

And the viability, T/C [1]?
Its viability, T/C is 72.7%.

What about the viability, T/C [2] of the same compound?
The viability, T/C was 30.3%.

What about the viability, T/C (second compound 0.01 µM, first compound 0.000316 µM) of the same compound?
The viability, T/C was 86.2%.

And the viability, T/C (second compound 0.01 µM, first compound 0.001 µM)?
The viability, T/C was 89.9%.

What about the viability, T/C (second compound 0.01 µM, first compound 0.00316 µM) of the same compound?
Its viability, T/C is 90.4%.

What about the viability, T/C (second compound 0.01 µM, first compound 0.01 µM) of the same compound?
Its viability, T/C is 79.5%.

What about the viability, T/C [3] of the same compound?
The viability, T/C was 62.4%.

And the viability, T/C [4]?
Its viability, T/C is 25.9%.

What about the viability, T/C (second compound 0.0316 µM, first compound 0.000316 µM) of the same compound?
Its viability, T/C is 79.1%.

What about the viability, T/C (second compound 0.0316 µM, first compound 0.001 µM) of the same compound?
Its viability, T/C is 86.4%.

And the viability, T/C (second compound 0.0316 µM, first compound 0.00316 µM)?
The viability, T/C was 86%.

What about the viability, T/C (second compound 0.0316 µM, first compound 0.01 µM) of the same compound?
The viability, T/C was 68.3%.

What about the viability, T/C [5] of the same compound?
The viability, T/C was 54.5%.

And the viability, T/C [6]?
Its viability, T/C is 21.7%.

And the viability, T/C (second compound 0.1 µM, first compound 0.000316 µM)?
The viability, T/C was 63.1%.

What about the viability, T/C (second compound 0.1 µM, first compound 0.001 µM) of the same compound?
Its viability, T/C is 56.8%.

What about the viability, T/C (second compound 0.1 µM, first compound 0.00316 µM) of the same compound?
The viability, T/C was 61.1%.

What about the viability, T/C (second compound 0.1 µM, first compound 0.01 µM) of the same compound?
The viability, T/C was 58.3%.

And the viability, T/C [7]?
Its viability, T/C is 32.8%.

What about the viability, T/C [8] of the same compound?
The viability, T/C was 13.3%.

And the viability, T/C (second compound 0.316 µM, first compound 0.000316 µM)?
Its viability, T/C is 18.5%.

What about the viability, T/C (second compound 0.316 µM, first compound 0.001 µM) of the same compound?
Its viability, T/C is 21.5%.

And the viability, T/C (second compound 0.316 µM, first compound 0.00316 µM)?
Its viability, T/C is 18.2%.

And the viability, T/C (second compound 0.316 µM, first compound 0.01 µM)?
The viability, T/C was 15.8%.

And the viability, T/C [9]?
Its viability, T/C is 12.2%.

What about the viability, T/C [10] of the same compound?
Its viability, T/C is 5.55%.

And the viability, T/C (second compound 1 µM, first compound 0.000316 µM)?
Its viability, T/C is 3.09%.

And the viability, T/C (second compound 1 µM, first compound 0.001 µM)?
The viability, T/C was 3%.

And the viability, T/C (second compound 1 µM, first compound 0.00316 µM)?
Its viability, T/C is 2.48%.

What about the viability, T/C (second compound 1 µM, first compound 0.01 µM) of the same compound?
The viability, T/C was 3.58%.

And the viability, T/C [11]?
Its viability, T/C is 2.39%.

And the viability, T/C [12]?
Its viability, T/C is 0.95%.

For CC1(C)CCC(CN2CCN(c3ccc(C(=O)NS(=O)(=O)c4ccc(NCC5CCOCC5)c([N+](=O)[O-])c4)c(Oc4cnc5[nH]ccc5c4)c3)CC2)=C(c2ccc(Cl)cc2)C1 + COc1c(OCCCN2CCOCC2)ccc2c3n(c(=NC(=O)c4cnc(N)nc4)nc12)CCN3, which IC50 (second compound 0.00316 µM) is on record?
The IC50 was greater than 10000 nM.

And the IC50 (second compound 0.01 µM)?
Its IC50 is greater than 10000 nM.

What about the IC50 (second compound 0.0316 µM) of the same compound?
The IC50 was greater than 10000 nM.

What about the IC50 (second compound 0.1 µM) of the same compound?
Its IC50 is greater than 10000 nM.

And the IC50 (second compound 0.316 µM)?
The IC50 was less than 31.6 nM.

What about the IC50 (second compound 1 µM) of the same compound?
The IC50 was less than 31.6 nM.

And the viability, T/C [1]?
The viability, T/C was 107%.

What about the viability, T/C [2] of the same compound?
Its viability, T/C is 97.6%.

And the viability, T/C (second compound 0.00316 µM, first compound 0.316 µM)?
The viability, T/C was 119%.

What about the viability, T/C (second compound 0.00316 µM, first compound 1 µM) of the same compound?
Its viability, T/C is 108%.

What about the viability, T/C (second compound 0.00316 µM, first compound 3.16 µM) of the same compound?
The viability, T/C was 86.5%.

And the viability, T/C (second compound 0.00316 µM, first compound 10 µM)?
Its viability, T/C is 98.2%.

And the viability, T/C [3]?
Its viability, T/C is 104%.

And the viability, T/C [4]?
The viability, T/C was 106%.

What about the viability, T/C (second compound 0.01 µM, first compound 0.316 µM) of the same compound?
Its viability, T/C is 106%.

What about the viability, T/C (second compound 0.01 µM, first compound 1 µM) of the same compound?
Its viability, T/C is 91.2%.

And the viability, T/C (second compound 0.01 µM, first compound 3.16 µM)?
Its viability, T/C is 91%.

And the viability, T/C (second compound 0.01 µM, first compound 10 µM)?
Its viability, T/C is 102%.

And the viability, T/C [5]?
The viability, T/C was 97%.

And the viability, T/C [6]?
Its viability, T/C is 99.8%.

What about the viability, T/C (second compound 0.0316 µM, first compound 0.316 µM) of the same compound?
Its viability, T/C is 114%.

And the viability, T/C (second compound 0.0316 µM, first compound 1 µM)?
The viability, T/C was 89.5%.

What about the viability, T/C (second compound 0.0316 µM, first compound 3.16 µM) of the same compound?
The viability, T/C was 92.7%.

What about the viability, T/C (second compound 0.0316 µM, first compound 10 µM) of the same compound?
Its viability, T/C is 102%.

And the viability, T/C [7]?
Its viability, T/C is 65.7%.

And the viability, T/C [8]?
Its viability, T/C is 68.8%.

And the viability, T/C (second compound 0.1 µM, first compound 0.316 µM)?
The viability, T/C was 65.8%.

And the viability, T/C (second compound 0.1 µM, first compound 1 µM)?
Its viability, T/C is 63.8%.

What about the viability, T/C (second compound 0.1 µM, first compound 3.16 µM) of the same compound?
Its viability, T/C is 59.3%.

And the viability, T/C (second compound 0.1 µM, first compound 10 µM)?
The viability, T/C was 58.4%.

What about the viability, T/C [9] of the same compound?
Its viability, T/C is 24.1%.

And the viability, T/C [10]?
Its viability, T/C is 22.1%.

And the viability, T/C (second compound 0.316 µM, first compound 0.316 µM)?
The viability, T/C was 23.5%.

What about the viability, T/C (second compound 0.316 µM, first compound 1 µM) of the same compound?
Its viability, T/C is 19.9%.

And the viability, T/C (second compound 0.316 µM, first compound 3.16 µM)?
The viability, T/C was 23.7%.

What about the viability, T/C (second compound 0.316 µM, first compound 10 µM) of the same compound?
Its viability, T/C is 19.6%.

And the viability, T/C [11]?
The viability, T/C was 4.02%.

And the viability, T/C [12]?
Its viability, T/C is 3.65%.

What about the viability, T/C (second compound 1 µM, first compound 0.316 µM) of the same compound?
Its viability, T/C is 4.06%.

What about the viability, T/C (second compound 1 µM, first compound 1 µM) of the same compound?
Its viability, T/C is 3.2%.

And the viability, T/C (second compound 1 µM, first compound 3.16 µM)?
The viability, T/C was 3.26%.

What about the viability, T/C (second compound 1 µM, first compound 10 µM) of the same compound?
The viability, T/C was 2.9%.
